melting point: 255 to 257 °C
Structure (SMILES): Cc1cc(-c2nnc3c4cccnc4c(OCc4ncnn4C)nn23)no1 [Example 4, 3-(5-Methylisoxazol-3-yl)-5-(2-methyl-1,2,4-triazol-3-ylmethyloxy)-1,2,3a,4,6-pentaaza-cyclopenta[a]naphthalene]
